# Measured values reported in patent publication US20190031618A1, “BENZIMIDAZOLE DERIVATIVES USEFUL AS CB-1 INVERSE AGONISTS” (Janssen Pharmaceutica NV, priority 2015, published 2019).
# Tests used:
# [1] = target: Human CB2R (Cannabinoid receptor 2) (Homo sapiens, UniProt P34972); assay: CB-2 in vitro cAMP (HTRF) assay; assay type: cell-based; details: HEK cells, cAMP HTRF, 250 nM forskolin; mean where tested more than once; read-out: CB2 HEK_cAMP EC50
# Procedure, shortened: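 Competitive HTRF read-out (d2-labelled cAMP vs cryptate antibody) quantifies cAMP in stably transfected HEK-293 cells, seeded the day before at 4E5 cells/mL. Stimulation buffer: HBSS, 5 mM HEPES, 0.1% BSA, 0.5 mM IBMX; forskolin prepared at 1.5 μM in buffer; compounds serially diluted 1/3 in DMSO.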
# [2] = target: Human CB1R (Cannabinoid receptor 1) (Homo sapiens, UniProt P21554); assay: CB-1 in vitro cAMP (HTRF) assay; assay type: cell-based; details: HEK cells, cAMP HTRF, 250 nM forskolin; mean where tested more than once; read-out: CB1 HEK_cAMP EC50
# Procedure, shortened: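 Intracellular cAMP from HTRF ratio (d2-cAMP vs Eu-cryptate anti-cAMP), converted to nM via per-plate standards, in stable human CB1R HEK-293 cells.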
# Human CB2R (Cannabinoid receptor 2), sequence (P34972 whole entry): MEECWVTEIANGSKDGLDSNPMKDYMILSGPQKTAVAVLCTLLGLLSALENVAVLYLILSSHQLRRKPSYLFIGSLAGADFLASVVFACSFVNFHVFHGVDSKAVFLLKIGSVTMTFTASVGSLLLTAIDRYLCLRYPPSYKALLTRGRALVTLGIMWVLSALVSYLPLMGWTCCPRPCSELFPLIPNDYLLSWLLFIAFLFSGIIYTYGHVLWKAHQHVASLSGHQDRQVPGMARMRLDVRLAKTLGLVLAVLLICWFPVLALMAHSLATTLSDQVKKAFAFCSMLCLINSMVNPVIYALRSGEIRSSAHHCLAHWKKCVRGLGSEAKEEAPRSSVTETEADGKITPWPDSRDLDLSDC
# Human CB1R (Cannabinoid receptor 1), sequence (P21554 whole entry): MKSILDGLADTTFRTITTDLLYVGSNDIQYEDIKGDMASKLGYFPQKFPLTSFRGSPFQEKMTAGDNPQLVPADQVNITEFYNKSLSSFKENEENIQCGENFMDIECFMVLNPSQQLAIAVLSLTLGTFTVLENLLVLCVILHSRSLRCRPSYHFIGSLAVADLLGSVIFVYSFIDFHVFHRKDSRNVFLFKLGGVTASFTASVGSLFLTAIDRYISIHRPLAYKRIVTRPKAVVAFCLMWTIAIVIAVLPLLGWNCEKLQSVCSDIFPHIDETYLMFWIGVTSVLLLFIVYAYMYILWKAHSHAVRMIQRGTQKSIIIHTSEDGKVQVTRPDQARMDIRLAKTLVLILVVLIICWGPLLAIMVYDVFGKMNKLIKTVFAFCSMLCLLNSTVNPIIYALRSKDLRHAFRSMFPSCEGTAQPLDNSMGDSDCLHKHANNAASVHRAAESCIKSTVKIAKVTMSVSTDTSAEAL
Compound,EC50 [1] [µM],EC50 [2] [µM]
O=C(O)CCC(=O)N1CCC(n2c(C3CC3)nc3ccc(C(c4ccc(Cl)cc4)c4ccc(Cl)cc4)cc32)CC1 [Example 269],> 10,1.03
Clc1ccc(C(c2ccc(Cl)cc2)c2ccc3nc(C4CC4)n(C4Cc5ccccc5C4)c3c2)cc1 [Example 300],> 10,0.163
CCCc1nc2ccc(C(c3ccc(Cl)cc3)c3nccs3)cc2n1C1CCN(C(=O)OCC)CC1 (stereo not shown) [Example 416],> 10,0.392
Clc1ccc(C(c2ccc3nc(-c4ccsc4)n(-c4cccc(Cl)c4)c3c2)c2nccs2)cc1 (stereo not shown) [Example 375],> 10,0.755
O=C(O)CS(=O)(=O)N1CCC(n2c(C3CC3)nc3ccc(C(c4ccc(Cl)cc4)c4ccc(Cl)cc4)cc32)CC1 [Example 248],> 10,4.24
O=S(=O)(N1CCC(n2c(-c3ccncc3)nc3ccc(C(c4ccc(Cl)cc4)c4nccs4)cc32)CC1)C(F)(F)F (stereo not shown) [Example 390],> 10,0.242
Cc1cc(S(=O)(=O)N2CCC(n3c(C4CC4)nc4ccc(C(c5ccc(Cl)cc5)c5ccc(Cl)cc5)cc43)CC2)ccc1C(N)=O [Example 206],> 10,0.101
COc1cccc(Cn2c(C3CC3)nc3ccc(C(c4ccc(Cl)cc4)c4ccc(Cl)cc4)cc32)c1 [Example 146],> 10,0.0337
CCCc1nc2ccc(C(c3ccc(Cl)cc3)c3nccs3)cc2n1C1CCN(S(=O)(=O)C(F)(F)F)CC1 (stereo not shown) [Example 399],> 10,0.163
COc1cc(S(=O)(=O)N2CCC(n3c(C4CC4)nc4ccc(C(c5ccc(Cl)cc5)c5ccc(Cl)cc5)cc43)CC2)ccc1C(=O)O [Example 251],0.73,0.0058
O=C(O)c1cccc(CN2CCC(n3c(C4CC4)nc4ccc(C(c5ccc(Cl)cc5)c5ccc(Cl)cc5)cc43)CC2)c1Cl [Example 91],9.4,0.0324
O=C(O)c1ccc(-c2cccc(CCn3c(C4CC4)nc4ccc(C(c5ccc(Cl)cc5)c5ccc(Cl)cc5)cc43)c2)s1 [Example 6],3.88,0.0283
O=C(NC1CCCC1)N1CCC(n2c(C3CC3)nc3ccc(C(c4ccc(Cl)cc4)c4ccc(Cl)cc4)cc32)CC1 [Example 74],5.39,0.0706
O=C(O)c1cncc(CN2CCC(n3c(C4CC4)nc4ccc(C(c5ccc(Cl)cc5)c5ccc(Cl)cc5)cc43)CC2)c1 [Example 123],7.5,0.0134
O=C(O)c1ccc(N2CCC(Cn3c(C4CC4)nc4ccc(C(c5ccc(Cl)cc5)c5ccc(Cl)cc5)cc43)CC2)cc1 [Example 1],2.85,0.0114
O=S(=O)(N1CCC(n2c(C3CC3)nc3c(O)cc(C(c4ccc(Cl)cc4)c4ccc(Cl)cc4)cc32)CC1)C(F)(F)F [Example 202],> 10,0.0312
CCc1csc(C(c2ccc(Cl)cc2)c2ccc3nc(-c4ccc(Cl)cc4)n(Cc4ccc(Cl)cc4)c3c2)n1 (stereo not shown) [Example 456],> 9.2,> 10
FC(F)(F)c1nc2ccc(C(c3ccc(Cl)cc3)c3nccs3)cc2n1CCc1cccc(Cl)c1 (stereo not shown) [Example 424],> 10,2.32
O=C(O)[C@H]1CC[C@H](n2c(C3CC3)nc3ccc(C(c4ccc(Cl)cc4)c4ccc(Cl)cc4)cc32)CC1 [Example 134],> 10,4.34
FC(F)(F)Cc1nc2ccc(C(c3ccc(Cl)cc3)c3nccs3)cc2n1CCc1cccc(Cl)c1 (stereo not shown) [Example 340],> 10,1.44
NC(=O)c1ccc(CN2CCC(n3c(C4CC4)nc4ccc(C(c5ccc(Cl)cc5)c5ccc(Cl)cc5)cc43)CC2)cn1 [Example 105],8,0.0051
CC(C)c1nc2ccc(C(c3ccc(Cl)cc3)c3nccs3)cc2n1C1CCN(S(=O)(=O)C(F)(F)F)CC1 (stereo not shown) [Example 397],> 10,> 10
Oc1ccc(-n2c(C3CC3)nc3ccc(C(c4ccc(Cl)cc4)c4ccc(Cl)cc4)cc32)cc1 [Example 171],> 10,0.167
O=C(O)c1cccc(OCCN2CCC(n3c(C4CC4)nc4ccc(C(c5ccc(Cl)cc5)c5ccc(Cl)cc5)cc43)CC2)c1 [Example 44],2.44,0.0146
CCNC(=O)N1CCC(n2c(C3CC3)nc3ccc(C(c4ccc(Cl)cc4)c4ccc(Cl)cc4)cc32)CC1 [Example 73],5.25,0.0185
CC(c1ccc(C(=O)O)o1)N1CCC(n2c(C3CC3)nc3ccc(C(c4ccc(Cl)cc4)c4ccc(Cl)cc4)cc32)CC1 (stereo not shown) [Example 86],10.2,0.015
O=S(=O)(N1CCC(n2cnc3ccc(C(c4ccc(Cl)cc4)c4nccs4)cc32)CC1)C(F)(F)F (stereo not shown) [Example 398],> 10,0.021

Compound,EC50 [1] [µM],EC50 [2] [µM]
O=S(=O)(NCCCn1c(C2CC2)nc2ccc(C(c3ccc(Cl)cc3)c3ccc(Cl)cc3)cc21)c1cccc(Br)c1 [Example 9],0.798,0.017
O=S(=O)(N1CCC(O)(Cn2c(C3CC3)nc3ccc(C(c4ccc(Cl)cc4)c4ccc(Cl)cc4)cc32)CC1)C(F)(F)F [Example 295],9,0.005
O=S(=O)(c1ccc(C(F)(F)F)cc1)N1CCC(n2c(C3CC3)nc3ccc(C(c4ccc(Cl)cc4)c4ccc(Cl)cc4)cc32)CC1 [Example 280],> 10,0.0105
O=C(O)c1cc(CN2CCC(n3c(C4CC4)nc4ccc(C(c5ccc(Cl)cc5)c5ccc(Cl)cc5)cc43)CC2)ccn1 [Example 83],11.3,0.0426
CCc1nc2ccc(C(O)(c3ccc(Cl)cc3)c3ccc(Cl)cc3)cc2n1C1CCN(S(=O)(=O)C(F)(F)F)CC1 [Example 308],> 10,0.0636
O=C(O)c1csc(CN2CCC(n3c(C4CC4)nc4ccc(C(c5ccc(Cl)cc5)c5ccc(Cl)cc5)cc43)CC2)c1 [Example 130],8.1,0.0155
NC(=O)c1cccc(S(=O)(=O)N2CCC(n3c(C4CC4)nc4ccc(C(c5ccc(Cl)cc5)c5ccc(Cl)cc5)cc43)CC2)c1 [Example 260],> 10,0.0015
O=C(O)c1ccc(C(O)(c2ccc(Cl)cc2)c2ccc3nc(C4CC4)n(C4CCN(S(=O)(=O)C(F)(F)F)CC4)c3c2)cc1 (stereo not shown) [Example 150],> 10,0.972
CCOC(=O)N1CCC(n2c(C(C)(C)C)nc3ccc(C(c4ccc(Cl)cc4)c4nccs4)cc32)CC1 (stereo not shown) [Example 408],> 10,3.15
O=C(O)COc1ccc(Cn2c(C3CC3)nc3ccc(C(c4ccc(Cl)cc4)c4ccc(Cl)cc4)cc32)cc1 [Example 176],> 10,> 10
O=C(O)c1cccc(CN2CCC(Cn3c(C4CC4)nc4ccc(C(c5ccc(Cl)cc5)c5ccc(Cl)cc5)cc43)CC2)c1 [Example 10],1.75,0.322
O=C(O)c1ccnc(N2CCC(Cn3c(C4CC4)nc4ccc(C(c5ccc(Cl)cc5)c5ccc(Cl)cc5)cc43)CC2)n1 [Example 2],5.03,0.479
NC(=O)COc1cccc(N2CCC(n3c(C4CC4)nc4ccc(C(c5ccc(Cl)cc5)c5ccc(Cl)cc5)cc43)CC2)c1 [Example 153],3.61,0.0087
O=C(O)COCC(c1ccc(Cl)cc1)(c1ccc(Cl)cc1)c1ccc2nc(C3CC3)n(C3CCN(S(=O)(=O)C(F)(F)F)CC3)c2c1 [Example 143],> 10,3.92
O=C(O)c1cccc(N[C@H]2CC[C@H](n3c(C4CC4)nc4ccc(C(c5ccc(Cl)cc5)c5ccc(Cl)cc5)cc43)CC2)c1 [Example 31],3,0.15
O=C(O)c1cc(CN2CCC(n3c(C4CC4)nc4ccc(C(c5ccc(Cl)cc5)c5ccc(Cl)cc5)cc43)CC2)ccc1O [Example 81],3.2,0.0141
O=S(=O)(N1CCC(Cn2c(C3CC3)nc3ccc(C(O)(c4ccc(Cl)cc4)c4ccc(Cl)cc4)cc32)CC1)C(F)(F)F [Example 294],> 10,0.0046
CCOC(=O)COc1cccc(Cn2c(C3CC3)nc3ccc(C(c4ccc(Cl)cc4)c4ccc(Cl)cc4)cc32)c1 [Example 144],4.7,0.0152
CC(C)(C)c1nc2ccc(C(c3ccc(Cl)cc3)c3ccc(Cl)cc3)cc2n1C1CCN(S(=O)(=O)C(F)(F)F)CC1 [Example 291],> 10,2.26
COC(=O)c1cnc(N2CCC(Cn3c(C4CC4)nc4ccc(C(c5ccc(Cl)cc5)c5ccc(Cl)cc5)cc43)CC2)nc1 [Example 5],0.632,0.033
Cc1cc(C(N)=O)sc1S(=O)(=O)N1CCC(n2c(C3CC3)nc3ccc(C(c4ccc(Cl)cc4)c4ccc(Cl)cc4)cc32)CC1 [Example 215],> 10,0.002
CCOC(=O)N1CCC(n2c(C3CCOCC3)nc3ccc(C(c4ccc(Cl)cc4)c4nccs4)cc32)CC1 (stereo not shown) [Example 412],> 10,0.623
O=C(O)c1ccccc1S(=O)(=O)N1CCC(n2c(C3CC3)nc3ccc(C(c4ccc(Cl)cc4)c4ccc(Cl)cc4)cc32)CC1 [Example 241],7.9,0.459
O=C(O)C(c1ccc(Cl)cc1)(c1ccc(Cl)cc1)c1ccc2nc(C3CC3)n(C3CCN(S(=O)(=O)C(F)(F)F)CC3)c2c1 [Example 267],> 10,0.007
O=C(O)c1ccc(CN2CCC(n3c(C4CC4)nc4ccc(C(c5ccc(Cl)cc5)c5ccc(Cl)cc5)cc43)CC2)s1 [Example 128],4.89,0.0069
NC(=O)c1ccc(S(=O)(=O)N2CCC(n3c(C4CC4)nc4ccc(C(c5ccc(Cl)cc5)c5ccc(Cl)cc5)cc43)CC2)o1 [Example 224],> 10,0.006
